From publication PMC3173978, “Kinetic Characterisation of Phosphofructokinase Purified from Setaria cervi: A Bovine Filarial Parasite” (Enzyme Research, 2011)

Columns and labels:
[1] = test system: T1, S. cervi PFK (phosphofructokinase); assay: coupled assay (aldolase/TPI/GDH, NADH oxidation at […] nm), Lineweaver-Burk; assay type: biochemical, Setaria cervi; conditions: 50 and 100 μM ATP, 3.3 mM Mg2+, pH 8.0
T1 construct: native enzyme purified to electrophoretic homogeneity from adult female worms (from buffalo peritoneal folds); subunit mass 90 kDa

[2] = target: T1, S. cervi PFK (phosphofructokinase); assay: as above; assay type: biochemical, Setaria cervi; conditions: competitive vs F-6-P, 0.1 mM ATP, 3.3 mM Mg2+, Tris-HCl pH 8.0

## O=P(O)(O)OC[C@H]1OC(O)(CO)[C@@H](O)[C@@H]1O (stereo partly drawn) [F-6-P, D-fructose-6-phosphate]
[1]
  Km: 1050 µM

## O=P(O)(O)OC[C@H]1OC(O)(COP(=O)(O)O)[C@@H](O)[C@@H]1O (stereo partly drawn) [FDP, D-fructose-1,6-diphosphate]
[2]; aldolase in coupling system acts on FDP
  Ki: 0.18 µM

## C=C(OP(=O)(O)O)C(=O)O [PEP, phosphoenolpyruvate]
[2]
  Ki: 800 µM
